Assays:
[1] = tested on: E. coli BL21 (DE3) cells expressing FLIPK; experiment: In vivo FRET measurement in FLIPK-expressing bacterial cell suspension; type: cell-based; settings: for change in FRET ratio of bacterial cell suspension (in vivo specificity): incubation with amino acids for 45 min
Description: In vivo analysis was performed by following the earlier protocols. […] Cultures were incubated in Luria Bertoni broth in baffled Erlenmeyer flasks for 48 h in the dark at 20 °C temperature in shaker incubator and then stored at 4 °C for overnight to ensure the proper folding of the fluorescent proteins. Then starved of nitrogen in M9 medium at 37 °C for 2 h and adjusted to OD600 3.5 and kept in 20 mM PBS buffer solution at pH 7.5. Then 180 µl of cells were dispended in the wells of microplate. 20 μl of 10 mM lysine in nitrogen starved medium grown cells were added and the fluorophores emissions were recorded for 45 min. For monitoring the accumulation rates, the injection module of microplate reader was used. Similar procedure was followed with other amino acids (arginine, ornithine, histidine) to see the specificity of FLIPK.

[2] = target: T1, FLIPK sensor protein (CFP-LAO-YFP) (Salmonella typhimurium, UniProt P02911); experiment: In vitro ligand specificity of FLIPK (FRET ratio with amino acids); type: binding, Salmonella enterica serovar typhimurium LT2; settings: amino acids at 1 and 10 mM, purified FLIPK
T1 construct: The first 22 amino acids (signal peptides) were removed by the help of a SignalP 4.1 server; (His)6 tag (from pRSET-B) (N); made in house; host or cells: E. coli BL21 (DE3), pRSET-B vector
Description: (§1) Specificity of the sensor protein was measured by using five amino acids, arginine, leucine, lysine, ornithine and histidine at three different concentrations i.e. 0, 1.0 and 10 mM, each. FRET measurement was carried out by using a microplate reader. The excitation filter/slit used was 430 nm/20 nm and emission filters/slits for CFP and YFP were 485 nm/20 nm and 535 nm/25 nm, respectively. 180 µl of diluted sensor protein and 20 µl of substrate were taken in different well. Affinity of sensor protein was monitored by using different concentrations of lysine. All analysis was performed in 20 mM PBS buffer (pH 7.5).

FLIPK-14 µ = target: T2, FLIPK-14 µ (Salmonella enterica, UniProt P02911, F74A); experiment: In vitro FRET titration of purified CFP-LAO-YFP sensor with lysine in 20 mM PBS buffer pH 7.5, YFP/CFP (535/485 nm) emission ratio in a microplate reader, fitted to a simple binding isotherm.; settings: n = 3
T2 construct: gene argT; LAO without first 22 residues (signal peptide), CFP at N-terminus and YFP at C-terminus, N-terminal (His)6 tag, pRSET-B
T2 sequence (P02911 23-260 F74A): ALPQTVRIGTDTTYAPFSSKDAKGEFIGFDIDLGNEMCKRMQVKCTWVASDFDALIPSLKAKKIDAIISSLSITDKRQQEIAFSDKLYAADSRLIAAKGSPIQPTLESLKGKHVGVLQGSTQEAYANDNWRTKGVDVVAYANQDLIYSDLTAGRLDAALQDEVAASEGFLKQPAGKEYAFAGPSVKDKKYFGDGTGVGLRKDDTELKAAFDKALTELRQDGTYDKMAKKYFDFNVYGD
Description: as §1
(§2) To determine the Kd of the FLIPK sensors, sensor protein was mixed with different concentrations of lysine in 20 mM PBS buffer (pH 7.5) and YFP/CFP ratio was recorded. By using the ratio change on ligand binding, binding constants (Kd) were determined by fitting ligand titration curve in a simple binding isotherm: S=(r-rapo)/(rsat-rapo)=L/Kd+L , where S is saturation; [L] is ligand concentration; r is ratio; rapo is ratio in the absence of ligand and rsat is ratio at saturation with ligand. All analyses were carried out with three independent protein preparations. FRET was used to characterize the sensor protein with various parameters. The FRET ratio was determined as fluorescence intensity at 535 nm (YFP) divided by fluorescence intensity at 485 nm (CFP).

FLIPK-306µ = target: T3, FLIPK-306µ (Salmonella enterica, UniProt P02911, R99L); experiment: as above; settings: n = 3
T3 construct: gene argT; LAO without first 22 residues (signal peptide), CFP at N-terminus and YFP at C-terminus, N-terminal (His)6 tag, pRSET-B
T3 sequence (P02911 23-260 R99L): T2 sequence (P02911 23-260 F74A)
Description: as §1, §2

FLIPK-30µ = target: T4, FLIPK-30µ (Salmonella enterica, UniProt P02911, S94A); experiment: as above; settings: n = 3
T4 construct: gene argT; LAO without first 22 residues (signal peptide), CFP at N-terminus and YFP at C-terminus, N-terminal (His)6 tag, pRSET-B
T4 sequence (P02911 23-260 S94A): T2 sequence (P02911 23-260 F74A)
Description: as §1, §2

FLIPK-2 m = target: T5, FLIPK-2 m (Salmonella enterica, UniProt P02911, D183I); experiment: as above; settings: n = 3
T5 construct: gene argT; LAO without first 22 residues (signal peptide), CFP at N-terminus and YFP at C-terminus, N-terminal (His)6 tag, pRSET-B
T5 sequence (P02911 23-260 D183I): T2 sequence (P02911 23-260 F74A)
Description: as §1, §2

FLIPK-97µ (FLIPK, WT) = target: T6, FLIPK-97µ (FLIPK, WT) (Salmonella enterica, UniProt P02911); experiment: as above; settings: n = 3
T6 construct: gene argT; LAO without first 22 residues (signal peptide), CFP at N-terminus and YFP at C-terminus, N-terminal (His)6 tag, pRSET-B
Description: as §1, §2

FLIPK-142µ = target: T7, FLIPK-142µ (Salmonella enterica, UniProt P02911, Y36A); experiment: as above; settings: n = 3
T7 construct: gene argT; LAO without first 22 residues (signal peptide), CFP at N-terminus and YFP at C-terminus, N-terminal (His)6 tag, pRSET-B
T7 sequence (P02911 23-260 Y36A): T2 sequence (P02911 23-260 F74A)
Description: as §1, §2

[3] = target: lysine binding periplasmic protein (LAO); design: method as in PMID 1400387; settings: read-out: Kd for lysine by equilibrium dialysis; cited from earlier work
[4] = tested on: S. cerevisiae/URA3 strain BY4742 expressing FLIPK; experiment: Confocal FRET imaging of lysine uptake in FLIPK-expressing yeast cells; type: cell-based
Description: For expression of FLIPK, S. cerevisiae/URA3 strain BY4742 was used as the eukaryotic host system. The yeast cells were grown and transformed by pYES-DEST-CFP-LAO-YFP vector in which the expression of CFP-LAO-YFP gene was controlled by GAL1 promoter. The transformed yeast cells were grown for 3–5 days in Synthetic Defined (SD)-growth and 1 % galactose as inducer. Imaging of expressed yeast cells were performed on confocal microscope (Leica DMRE) equipped with a confocal head TCS-SPE (Leica, Wetzlar, Germany). The yeast cells were fixed on glass slides by using medical adhesive rinsed with the growth medium and covered by a cover slip. To measure the lysine in yeast cells, dual emission intensity ratio was recorded by using LAS-AF software (Leica, Wetzlar, Germany) with 436 nm/20 nm excitation, two emission filters i.e. 480 nm/40 nm for CFP and 535/30 nm for YFP. For recording the data, FRET sensitized emission tool without background subtraction of the Leica confocal software. The data was further processed by using Adobe Photoshop. Images of single cell and multiple cells were captured by selecting the region of interest (ROI). Similar procedure was followed for the imaging of expressed bacterial cells.

## N=C(N)NCCC[C@H](N)C(=O)O [arginine]
[1]
  change in FRET ratio of bacterial cell suspension (in vivo specificity): did not change the FRET ratio
[2]
  change in FRET ratio of FLIPK (ligand specificity): non-significant change in FRET ratio

## N[C@@H](Cc1c[nH]cn1)C(=O)O [histidine]
[1]
  change in FRET ratio of bacterial cell suspension (in vivo specificity): did not change the FRET ratio
[2]
  change in FRET ratio of FLIPK (ligand specificity): non-significant change in FRET ratio

## CC(C)C[C@H](N)C(=O)O [leucine]
[2]
  change in FRET ratio of FLIPK (ligand specificity): non-significant change in FRET ratio

## NCCCC[C@H](N)C(=O)O [lysine, L-lysine]
FLIPK-14 µ
  Kd: 14 µM
FLIPK-306µ
  Kd: 306 µM
FLIPK-30µ
  Kd: 30 µM
FLIPK-2 m
  Kd: 2 mM
FLIPK-97µ (FLIPK, WT)
  Kd: 97 µM
FLIPK-142µ
  Kd: 142 µM

## NCCCC[C@H](N)C(=O)O [lysine]
[3]
  Kd: 15 nM
[1]; 10 mM lysine added externally
  time after which FRET ratio increased distinctly: 5 min
[1]; 10 mM lysine added externally, 20 mM PBS buffer
  time at which FRET ratio of the cell suspensions saturated: 45 min
[1]; at 10 mM
  time within which uptake of lysine saturated: 40 to 45 min
[1]
  change in FRET ratio of bacterial cell suspension (in vivo specificity): major change
[2]
  change in FRET ratio of FLIPK (ligand specificity): significant increase in the FRET ratio
[4]; 100 mM extracellular lysine, single yeast cell
  increase of 535 nm/485 nm emission intensity ratio: 2.0
[4]; after addition of lysine
  time up to which 535 nm/485 nm ratio increased before saturation: 255 s

## NCCC[C@H](N)C(=O)O [ornithine]
[1]
  change in FRET ratio of bacterial cell suspension (in vivo specificity): did not change the FRET ratio
[2]
  change in FRET ratio of FLIPK (ligand specificity): non-significant change in FRET ratio
